Our source for the inhibition and Activity values is ChEMBL document CHEMBL4130363, “Synthesis and pharmacological evaluation of benzamide derivatives as potent and selective sigma-1 protein ligands” (Eur J Med Chem, 2017).

In experiment [1] the target is T1, 5-hydroxytryptamine receptor 3A (Homo sapiens) (UniProt P46098).
T1 sequence (whole entry): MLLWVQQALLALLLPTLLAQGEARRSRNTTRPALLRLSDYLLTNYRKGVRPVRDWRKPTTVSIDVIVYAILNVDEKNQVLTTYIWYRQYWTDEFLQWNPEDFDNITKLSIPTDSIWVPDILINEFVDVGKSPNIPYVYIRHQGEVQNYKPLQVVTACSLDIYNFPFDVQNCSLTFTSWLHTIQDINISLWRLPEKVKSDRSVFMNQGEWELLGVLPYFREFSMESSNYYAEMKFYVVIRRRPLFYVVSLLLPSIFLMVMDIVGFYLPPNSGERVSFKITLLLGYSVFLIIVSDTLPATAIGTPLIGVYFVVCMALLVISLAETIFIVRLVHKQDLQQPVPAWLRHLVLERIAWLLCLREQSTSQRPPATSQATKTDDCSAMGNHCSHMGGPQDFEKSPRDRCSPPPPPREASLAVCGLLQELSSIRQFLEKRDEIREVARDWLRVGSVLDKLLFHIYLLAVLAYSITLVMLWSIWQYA
As to the kind of experiment: Antagonist activity at recombinant human 5-HT3 assessed as inhibition of agonist-induced effect at 10 uM by aequorin reporter based assay.

The target in experiment [2] is T2, Alpha-2B adrenergic receptor (Homo sapiens) (UniProt P18089).
T2 sequence (whole entry): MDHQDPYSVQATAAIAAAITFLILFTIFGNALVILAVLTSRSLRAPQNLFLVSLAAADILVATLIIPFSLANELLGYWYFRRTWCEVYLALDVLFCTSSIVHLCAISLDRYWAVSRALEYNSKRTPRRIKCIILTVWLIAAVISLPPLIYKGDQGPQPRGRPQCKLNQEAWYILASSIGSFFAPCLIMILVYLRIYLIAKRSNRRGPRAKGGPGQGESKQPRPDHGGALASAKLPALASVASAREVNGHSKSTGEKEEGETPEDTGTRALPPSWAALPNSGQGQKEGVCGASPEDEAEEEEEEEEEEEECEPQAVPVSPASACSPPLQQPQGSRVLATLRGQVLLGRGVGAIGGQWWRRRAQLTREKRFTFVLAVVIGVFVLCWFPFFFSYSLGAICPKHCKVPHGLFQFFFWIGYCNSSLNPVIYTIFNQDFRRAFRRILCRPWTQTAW
As to the kind of experiment: Antagonist activity at recombinant human alpha-2b adrenergic receptor assessed as inhibition of agonist-induced effect at 10 uM by GTPgamma[35S] binding-based assay. The format is functional.

The target in experiment [3] is T3, Cholecystokinin receptor type A (Homo sapiens) (UniProt P32238).
T3 sequence (whole entry): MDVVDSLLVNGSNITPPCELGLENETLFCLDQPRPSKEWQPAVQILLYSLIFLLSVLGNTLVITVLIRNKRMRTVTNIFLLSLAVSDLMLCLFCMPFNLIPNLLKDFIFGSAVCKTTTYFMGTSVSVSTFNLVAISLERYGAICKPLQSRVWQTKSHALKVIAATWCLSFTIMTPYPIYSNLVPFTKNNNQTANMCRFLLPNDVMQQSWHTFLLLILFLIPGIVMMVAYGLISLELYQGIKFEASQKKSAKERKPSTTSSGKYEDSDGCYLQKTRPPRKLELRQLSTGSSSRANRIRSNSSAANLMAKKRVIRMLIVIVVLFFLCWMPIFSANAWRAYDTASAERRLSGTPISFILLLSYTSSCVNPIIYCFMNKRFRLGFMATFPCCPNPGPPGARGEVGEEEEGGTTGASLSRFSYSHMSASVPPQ
Briefly: Antagonist activity at recombinant human […] receptor assessed as inhibition of agonist induced effect at 10 uM by aequorin reporter based assay. The format is functional.

Experiment [4] addresses T4, Alpha-2A adrenergic receptor (Homo sapiens) (UniProt P08913).
T4 sequence (whole entry): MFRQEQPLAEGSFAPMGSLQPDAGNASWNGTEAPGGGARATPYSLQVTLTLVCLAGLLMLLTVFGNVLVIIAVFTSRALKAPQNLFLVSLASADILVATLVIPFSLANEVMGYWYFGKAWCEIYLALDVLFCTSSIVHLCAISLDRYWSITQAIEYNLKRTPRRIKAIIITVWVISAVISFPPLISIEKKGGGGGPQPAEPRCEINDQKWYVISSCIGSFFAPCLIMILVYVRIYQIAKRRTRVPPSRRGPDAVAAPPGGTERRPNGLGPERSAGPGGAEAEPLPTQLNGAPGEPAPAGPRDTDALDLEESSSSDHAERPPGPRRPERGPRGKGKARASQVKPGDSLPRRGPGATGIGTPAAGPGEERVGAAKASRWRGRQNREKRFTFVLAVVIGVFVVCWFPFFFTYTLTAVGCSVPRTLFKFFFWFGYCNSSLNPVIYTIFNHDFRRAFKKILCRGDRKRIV
As to the kind of experiment: Agonist activity at recombinant human alpha-2a adrenergic receptor at 10 uM by GTPgamma[35S] binding-based assay relative to agonist. The format is functional.

Experiment [5] concerns the target T5, 5-hydroxytryptamine receptor 1A (Homo sapiens) (UniProt P08908).
T5 sequence (whole entry): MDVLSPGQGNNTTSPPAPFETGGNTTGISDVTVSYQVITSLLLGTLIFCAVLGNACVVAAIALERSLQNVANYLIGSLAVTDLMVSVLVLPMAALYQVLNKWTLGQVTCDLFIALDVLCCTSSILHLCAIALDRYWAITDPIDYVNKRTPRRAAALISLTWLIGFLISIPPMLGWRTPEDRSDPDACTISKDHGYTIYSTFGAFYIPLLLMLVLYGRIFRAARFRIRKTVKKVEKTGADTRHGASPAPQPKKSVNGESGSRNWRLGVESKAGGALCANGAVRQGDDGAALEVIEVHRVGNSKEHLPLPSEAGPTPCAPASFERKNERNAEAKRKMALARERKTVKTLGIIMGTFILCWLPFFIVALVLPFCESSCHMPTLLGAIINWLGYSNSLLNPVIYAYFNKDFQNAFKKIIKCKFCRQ
Briefly: Antagonist activity at recombinant human 5-HT1A assessed as inhibition of agonist-induced cAMP levels at 10 uM by HTRF assay. The format is functional.

Experiment [6] has as its target T6, Alpha-1A adrenergic receptor (Homo sapiens) (UniProt P35348).
T6 sequence (whole entry): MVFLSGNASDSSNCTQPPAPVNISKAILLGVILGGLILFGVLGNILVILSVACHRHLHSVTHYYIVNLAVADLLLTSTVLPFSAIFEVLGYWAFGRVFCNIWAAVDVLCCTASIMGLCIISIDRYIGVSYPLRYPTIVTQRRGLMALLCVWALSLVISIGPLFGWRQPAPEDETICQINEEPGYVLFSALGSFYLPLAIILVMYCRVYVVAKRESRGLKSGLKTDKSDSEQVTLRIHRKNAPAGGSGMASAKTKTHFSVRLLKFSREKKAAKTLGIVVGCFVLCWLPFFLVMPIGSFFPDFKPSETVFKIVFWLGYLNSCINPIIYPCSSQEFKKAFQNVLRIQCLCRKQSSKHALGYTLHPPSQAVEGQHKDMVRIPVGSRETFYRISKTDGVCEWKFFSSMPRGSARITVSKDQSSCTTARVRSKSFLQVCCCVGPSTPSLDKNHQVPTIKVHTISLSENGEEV
As to the kind of experiment: Agonist activity at recombinant human alpha-1a adrenergic receptor […] at 10 uM by aequorin reporter based assay relative to agonist. The format is functional.

Turning to `CN(CCCNC(=O)c1cccc(Br)c1)Cc1ccccc1`, the inhibition was determined as 83% in experiment [1], 38% in experiment [2], 10% in experiment [3] and 7% in experiment [5]. The figures for the Activity in experiment [4] and in experiment [6] were -3% and 0%, respectively.
With `CN(CCCNC(=O)c1ccc(C(F)(F)F)cc1)Cc1ccccc1`, the inhibition in experiment [1] is 75%; in experiment [2], 33%; in experiment [3], 22%; in experiment [5], 1%. Besides, the values for the Activity in experiment [4] and in experiment [6] were -2% and 0%, respectively.
As for `CCCc1ccc(C(=O)NCCCN(C)Cc2ccccc2)cc1`, the inhibition is 90% in experiment [1], 54% in experiment [2], 17% in experiment [3] and -6% in experiment [5]. Further, the Activity came to 1% in experiment [4] and 0% in experiment [6].
As for `CN(CCNC(=O)c1ccc([N+](=O)[O-])cc1)Cc1ccccc1`, the inhibition in experiment [1] was determined as 30%; in experiment [2] it was 39%; in experiment [3], 18%; in experiment [5] it was 20%. Also, the Activity in experiment [4] was -1%; in experiment [6], 0%.
Turning to `CN(CCNC(=O)c1ccc(C#N)cc1)Cc1ccccc1`, the inhibition was 75% in experiment [1], 40% in experiment [2], 21% in experiment [3] and 16% in experiment [5]. Besides, the Activity in experiment [4] was -1%; in experiment [6] it was 0%.
In the case of `CN(CCCNC(=O)c1ccc(Br)cc1)Cc1ccccc1`, the inhibition is 79% in experiment [1], 28% in experiment [2], -5% in experiment [3] and -5% in experiment [5]. Moreover, the figures for the Activity in experiment [4] and in experiment [6] were 3% and 1%, respectively.
`CN(CCNC(=O)c1ccc(Cl)cc1)Cc1ccccc1`: the inhibition in experiment [1] came to 51%; in experiment [2], 39%; in experiment [3], 26%; in experiment [5], 3%. Also, the Activity is -3% in experiment [4] and 0% in experiment [6].
`COc1cccc(C(=O)NCCCN(C)Cc2ccccc2)c1`: the inhibition was determined as 28% in experiment [1], 27% in experiment [2], 18% in experiment [3] and 18% in experiment [5]. The Activity in experiment [4] and in experiment [6] was 0% throughout.
For the compound `CN(CCCNC(=O)c1ccc(Cl)cc1)CCc1ccccc1`, the inhibition in experiment [1] worked out at 62%; in experiment [2] it was 83%; in experiment [3], 29%; in experiment [5], 17%. In addition, the results for the Activity in experiment [4] and in experiment [6] were -3% and 0%, respectively.
On to `COc1ccc(C(=O)NCCCN(C)Cc2ccccc2)cc1`, for which the inhibition is 19% in experiment [1], 29% in experiment [2], 14% in experiment [3] and 5% in experiment [5]. Further, the Activity in experiment [4] was -1%; in experiment [6], 0%.
Turning to `CN(CCCNC(=O)c1ccc([N+](=O)[O-])cc1)Cc1ccccc1`, the inhibition is 23% in experiment [1], 30% in experiment [2], 14% in experiment [3] and -6% in experiment [5]. Moreover, the Activity in experiment [4] is -5%; in experiment [6] it was 0%.
`CN(CCCNC(=O)c1ccc(Cl)cc1)Cc1ccccc1`: the inhibition is 42% in experiment [1], 45% in experiment [2], 12% in experiment [3] and -1% in experiment [5]. In addition, the results for the Activity in experiment [4] and in experiment [6] were -2% and 0%, respectively.
